Target: Vasopressin V1a receptor (Homo sapiens, UniProt P37288)
Experiment: Antagonist activity at vasopressin V1A receptor (unknown origin) assessed as calcium level
Format: functional

Vasopressin V1a receptor, sequence (P37288 whole entry): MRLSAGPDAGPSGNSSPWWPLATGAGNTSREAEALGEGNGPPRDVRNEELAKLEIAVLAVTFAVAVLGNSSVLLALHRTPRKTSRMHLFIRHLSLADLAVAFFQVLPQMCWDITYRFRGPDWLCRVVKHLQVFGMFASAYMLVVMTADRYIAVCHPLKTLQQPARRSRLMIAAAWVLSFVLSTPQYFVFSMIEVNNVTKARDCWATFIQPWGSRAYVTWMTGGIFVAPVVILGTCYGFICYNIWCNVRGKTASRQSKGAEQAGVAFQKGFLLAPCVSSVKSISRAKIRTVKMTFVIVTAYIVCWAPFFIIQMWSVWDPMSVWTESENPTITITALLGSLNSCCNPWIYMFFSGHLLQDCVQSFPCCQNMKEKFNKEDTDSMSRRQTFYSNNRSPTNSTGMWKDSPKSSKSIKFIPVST

IC50	Structure (SMILES)
2430 nM	Cc1cc(C(=O)N2Cc3cnn(C)c3Nc3ccccc32)ccc1CNC(=O)N1C[C@H](OCc2cc(O)cc(O)c2)C[C@H]1C(=S)N(C)C
585 nM	Cc1cc(C(=O)N2Cc3cnn(C)c3Nc3ccccc32)ccc1CNC(=O)N1C[C@H](OCCO)C[C@H]1C(=S)N(C)C

— ChEMBL document CHEMBL6178005, “Novel Nonpeptide as Oxytocin Receptor Agonist” (ACS Med Chem Lett, 2025)
